Experiments:
Assay type in all cases: cell-based, Human
[1] = tested on: MARE sequence of SEQ ID NO: 2; assay: Luciferase reporter assay, 3xMARE/RBGP-Luc (MARE of SEQ ID NO: 2) transfected into HepG2
From the text: (a) Construction of a Recombinant Vector
As the basal skeleton of the recombinant vector, pGL2-Basic (product of Promega) was used. This vector is a luciferse expression vector.
The SV40 promoter of the above pGL2-Basic was substituted with oligonucleotides (SEQ ID NO: 8 and NO: 9, 41-mer each) containing the TATA sequence of rabbit β-globin promoter at Bgl II/Hind III site to construct pRBGP3 (Nature, 367, 568-572 (1994)).
(§1) Then, 3 copies (Mol. Cell. Biol., 14, 700-712 (1994)) of various oligonucleotides (32-mers) containing the MARE sequences of SEQ ID NO: 1 through 7, comparative or control MARE sequences (SEQ ID NO: 1-4, 6 and 7), and an ARE sequence (SEQ ID NO: 5) were respectively inserted into the XhoI site of pUC118 vector with a modified poly-linker sequence. Further, the portion containing the 3 repeats of MARE sequence was excised at KpnI/BamHI site and inserted into the KpnI/BamHI site of pRBGP3. As an example of the above 32mer sequence, the one containing MARE of SEQ ID NO: 2 is shown in SEQ ID NO: 20. Here, tcgag represents the XhoI site.
(§2) Thus obtained were 3xMARE/RBGP-Luc and 3xARE/RBGP-Luc plasmids containing 3 repeats of 32 oligonucleotide sequences containing the 13 oligonucleotides shown in SEQ ID NO: 1 through 7 (MARE sequences, ARE sequences, and the corresponding comparative and control sequences). SEQ ID NO: 21 is an example of the sequence contained in the resulting 3xMARE/RBGP-Luc using SEQ ID NO: 2 as MARE. The obtained recombinant expression vectors were used for subsequent transfections.
(§3) Transfections were carried out using SUPERFECT Transfection Reagent (Qiagen) according to the protocol accompanying the reagent. Human hepatocellular calcinoma cell line HepG2 was subcultured on a 35 mm plate and, after 24 hours, the transfection was carried out. Thus, a transfection solution containing 100 μl of a vector solution containing 0.25 μg of the above plasmid, 100 μl of SUPERFECT transfection reagent, and 600 μl of DMEM serum-free medium were added to a PBS-washed cell plate. After 2 hours of incubation at 37° C., the medium was changed to 10% FCS-supplemented DMEM. After 2 hours, stimulating reagents containing various heavy metal compounds inclusive of auranofin; Ridaura™, product of Sigma; 2,3,4,6-tetra-O-acetyl-1-thio-β-D-glucopyranosato-S) (triethylphosphine)gold were added and the culture was continued. The luciferase activity in the cells was assayed 15-18 hours later.
(§4) The assay of luciferase activity was carried out using Dual-Luciferase Reporter Assay System (product of Promega) according to the manufacture's protocol.
(§5) To the culture plate was added 100 μl of the cytolytic buffer included in the […] kit to lyse the cells, and using a bench-top centrifuge, the lysate was centrifuged at 15,000 rpm for 5 seconds. The supernatant, 20 μl, of the lysate was mixed with 100 μl of the attached reagent LARII and the first chemiluminescence was measured with a luminometer. Then, 100 μl of the stopper (Stop & Glo Reagent) was added and the second chemniluminescence was measured.
(§6) The ratio of the first and second chemiluminescences was determined to calculate luciferase activity.
The recombinant expression vector (reporter plasmid) ligated with the MARE sequence of SEQ ID NO: 2 as constructed under (a) above, namely 3xMARE/RBGP-Luc, was used. Stimulating reagents containing various heavy metal compounds, namely 100 μM each of manganese chloride (MnCl2), cobalt chloride (CoCl2), nickel chloride (NiCl2), copper sulfate (CuSO4), zinc sulfate (ZnSO4), cadmium sulfate (CdSO4), mercury chloride (HgCl2) and sodium tetrachloroaurate(III) (Na(AuCl4)) and 5 μM of auranofin, were respectively added and the cells were cultured by the above procedure (b) for 18 hours. Then, luciferase activity was measured by the procedure described under (c) above. […]

[2] = tested on: ARE sequence of the glutathione S-transferase Ya gene (SEQ ID NO: 5); assay: Luciferase reporter assay, 3xARE/RBGP-Luc (ARE of SEQ ID NO: 5) in HepG2; conditions: HepG2, FIG. 4
From the text: as §1, §2, §3, §4, §5, §6
The results are shown in FIG. 4 similar to FIG. 1 (the abbreviations of reagents added are the same as above; each luciferase activity ratio was calculated with the control value found by culture of the vector in the absence of the test reagent being taken as 1).

[3] = tested on: control MARE of SEQ ID No: 6; assay: Luciferase reporter assay, control MARE of SEQ ID NO: 6 in HepG2; conditions: 5 μM auranofin vs absence, 18 hours, HepG2, FIG. 3
From the text: as §1, with “site. […]” for “site.”
as §5
(§7) The ratio of the first and second chemiluminescences was determined to calculate luciferase activity. […]

[4] = tested on: MARE sequence of SEQ ID NO: 1; assay: Luciferase reporter assay, 3xMARE/RBGP-Luc (MARE of SEQ ID NO: 1) in HepG2; conditions: 5 μM auranofin vs absence, 18 hours, HepG2, FIG. 3
From the text: as §1, with “site. […]” for “site.”
as §5, §7

5xkB (IL2R-a) kB element = assay: Luciferase reporter assay, positive control 5xkB (IL2R-a) in HepG2; conditions: 5 μM auranofin vs absence, 18 hours, HepG2, FIG. 3
Method: as §3, with “After 2 hours, stimulating reagents containing various heavy metal compounds inclusive of auranofin; Ridaura™, product of Sigma; 2,3,4,6-tetra-O-acetyl-1-thio-β-D-glucopyranosato-S) (triethylphosphine)gold were added and the culture was continued. The luciferase activity in the cells was assayed 15-18 hours later.” left out
as §5, §7
(§8) Each of the above vectors was cultured by the above procedure (b) for 18 hours in the presence of 5 μM auranofin or in the absence thereof and the luciferase activity was measured by the above procedure (c). […]

[5] = tested on: MARE sequence of SEQ ID NO: 3; assay: Luciferase reporter assay, 3xMARE/RBGP-Luc (MARE of SEQ ID NO: 3) in HepG2; conditions: 5 μM auranofin vs absence, 18 hours, HepG2, FIG. 3
From the text: as §1, with “site. […]” for “site.”
as §5, §7

[6] = tested on: MARE sequence of SEQ ID NO: 4; assay: Luciferase reporter assay, 3xMARE/RBGP-Luc (MARE of SEQ ID NO: 4) in HepG2; conditions: 5 μM auranofin vs absence, 18 hours, HepG2, FIG. 3
From the text: as §1, with “site. […]” for “site.”
as §5, §7

[7] = tested on: AP-1 (activator protein-1) element of SEQ ID NO: 7; assay: Luciferase reporter assay, AP-1 element of SEQ ID NO: 7 in HepG2; conditions: 5 μM auranofin vs absence, 18 hours, HepG2, FIG. 3
From the text: as §1, with “site. […]” for “site.”
as §5, §7

[8] = tested on: 5xSRE (c-fos) serum response element; assay: Luciferase reporter assay, positive control 5xSRE (c-fos) in HepG2; conditions: 5 μM auranofin vs absence, 18 hours, HepG2, FIG. 3
Method: as §3, with “After 2 hours, stimulating reagents containing various heavy metal compounds inclusive of auranofin; Ridaura™, product of Sigma; 2,3,4,6-tetra-O-acetyl-1-thio-β-D-glucopyranosato-S) (triethylphosphine)gold were added and the culture was continued. The luciferase activity in the cells was assayed 15-18 hours later.” left out
as §5, §7, §8

[9] = 100 μM heavy metal compound, 18 hours, HepG2, control taken as 1, FIG. 1

SMILES: [Cl][Hg][Cl] [mercury chloride]
- luciferase activity in multiples of untreated control (Fold Activation) [1, 9]: 10

SMILES: [Cl][Au-]([Cl])([Cl])[Cl].[Na+] [sodium tetrachloroaurate(III)]
- luciferase activity in multiples of untreated control (Fold Activation) [1, 9]: 4.3

SMILES: O=C(O)CC(S)C(=O)O (centres unmarked) [thiomalate]
- activity ratio (luciferase activity ratio, control taken as 1) ([2]; 100 μM): 2.1±0.6

SMILES: O=S(=O)([O-])[O-].[Cd+2] [cadmium sulfate]
- luciferase activity in multiples of untreated control (Fold Activation) [1, 9]: 27.3

SMILES: OC[C@H]1O[C@H]([S-])[C@H](O)[C@@H](O)[C@@H]1O.[Au+] [AuTG, (1-thio-D-glucopyranosato)gold]
- activity ratio (luciferase activity ratio, control taken as 1) ([2]; 500 μM): 21.7±15.4

SMILES: CC(C)(C)c1cc(O)c(C(C)(C)C)cc1O [tBHQ, 2,5-di-tert-butylhydroquinone]
- activity ratio (luciferase activity ratio, control taken as 1) ([2]; 60 μM): 6.0±3.8

SMILES: [Cl][Co][Cl] [cobalt chloride]
- luciferase activity in multiples of untreated control (Fold Activation) [1, 9]: 6.9

SMILES: CC[PH](CC)(CC)[Au][S][C@@H]1O[C@H](COC(C)=O)[C@@H](OC(C)=O)[C@H](OC(C)=O)[C@H]1OC(C)=O [auranofin, (2,3,4,6-tetra-O-acetyl-1-thio-β-D-glucopyranosato-S)(triethylphosphine)gold]
- action on the reporter (luciferase activity ratio) [3]: does not act on
- transcription activity ratio (luciferase activity ratio) [4]: 53.3
- action on the reporter (luciferase activity ratio) (5xkB (IL2R-a) kB element): does not act on
- activity ratio (luciferase activity ratio, control taken as 1) ([2]; 5 μM): 102.9±53.4
- activity relative to that of tBHQ ([2]; AUR 5 μM vs tBHQ 60 μM): about 30 times
- transcription activity ratio (luciferase activity ratio) [5]: 30.8
- transcription activity ratio (luciferase activity ratio) ([1]; 5 μM auranofin vs absence, 18 hours, HepG2, FIG. 3, study (3)): 158.7
- luciferase activity in multiples of untreated control (Fold Activation) ([1]; 5 μM auranofin, 18 hours, HepG2, control taken as 1, FIG. 1, study (1)): 142.4 times
- dose dependence of MARE activation (luciferase activity ratio, Fold Activation) ([1]; AUR 0.5-20 μM, AuTG 20-500 μM, AuTM 10-500 μM, HepG2, FIG. 2): outstanding luciferase activation compared with the other two kinds of gold compounds
- transcription activity ratio (luciferase activity ratio) [6]: 112.9
- action on the reporter (luciferase activity ratio) [7]: does not act on
- action on the reporter (luciferase activity ratio) [8]: does not act on

SMILES: O=C([O-])CC([S-])C(=O)[O-].[Au+].[Na+].[Na+] (centres unmarked) [AuTM, sodium aurothiomalate]
- activity ratio (luciferase activity ratio, control taken as 1) ([2]; 100 μM): 8.1±0.4
